Measurements from patent US20250032580A1, “USE OF ADNF POLYPEPTIDES IN THERAPY” (RAMOT AT TEL-AVIV UNIVERSITY LTD., priority 2021, published 2025).

Experiments:
Tyr mice = assay: Developmental milestone assessment of Tyr mouse pups; assay type: in vivo; parameters: key to NAP efficacy: global developmental delays: corrections by NAP treatment (+)
Protocol: Animals—Animals were housed under a 12-hour light/dark cycle, with food and water ad-libitum. Mouse pups were subcutaneously administrated with NAP [having an amino acid sequence NAPVSIPQ (SEQ ID NO: 2), 25 μg NAP/1 ml saline] as described (8, 12). At 21 days of age mice were administered daily intranasal NAP in vehicle solution (“DD”—7.5 mg/ml of NaCl, 1.7 mg/ml of citric acid, 3 mg/ml of disodium phosphate dihydrate, and 0.2 mg/ml of 50% benzalkonium chloride solution) (0.5 μg NAP/5p1 DD) (8, 9, 12, and U.S. Pat. No. 10,912,819 to Gozes). These mice continued to behavioral analysis as described hereinbelow. The noninvasive intranasal route was chosen as these experiments required daily handling and administration. Age (weeks) of mice during behavioral experiments (mean±SEM) was as follows: Catwalk-9.23±0.15, grooming-10±0.15, social approach-10.5±0.12, odor-discrimination-12.12±0.13, hanging-wire-13±0.14, hotplate-13.18±0.13. Group size was determined following previous experiments (12). Pups were randomly allocated to either the NAP or DD group according to sex and genotype. All procedures involving animals were conducted under the supervision and approval of the institutional animal care and use committee of Tel Aviv University and the Israeli Ministry of Health.
Developmental milestone assessment and fostering—This experiment included animals from 16 litters in 2 experimental batches. It was performed as previously described (12) with slight modifications. Experimenters were blinded to sex and genotype during experimental procedures. Sexes were grouped if no statistically significant sex differences were discovered.
Developmental milestone assessment: At p1 Tyr pups were tattooed and genotyped for the presence of the Tyr718 mutation and SRY as described above. The same day pups were randomized to either NAP or Saline treatment groups according to genotype and sex results and developmental milestone assessment was performed from p1 to p21. As animal randomization ended up with unequal male/female ratios for certain groups and no statistical differences were found between the sexes in any of the 4 treatment groups (T test), the sexes could not be separated, [That is except for eye opening, where a significant difference was observed between the sexes in the Tyr group (P=0.047, no significance in the other three treatment groups)]. Pup paws were tattooed using a 31-gauge needle and tattoo ink (Ketchum Manufacturing Co., catalog 329AA) for identification on P1 and, until P21, underwent daily measurements for length and weight and observation for eye opening. Pups were injected daily with NAP, 1 hour prior to the tests as previously described^1.
Briefly, for ear twitch reflex, a cotton tip was gently brushed against the tip of the ear three times, between postnatal days 7-15 or until the pup responded correctly for two consecutive days. For air righting reflex, the pup was held up-side down and released ˜10.5 cm above the cage, containing 5 cm of shavings. The test was performed between postnatal days 8-21 or until the pup landed on the shavings with all four paws, for two consecutive days. For surface righting reflex, pups were placed on their backs on a level surface, the test was performed between postnatal days 1-13 until the pups was able to right itself with all four paws on the surface in under a second for two consecutive days. For eye opening, mice were observed daily until both eyes were open (eyelids separated completely). For auditory startle, the pup was placed on a level surface and the experimenter clapped loudly twice until a visible startle response was evident for 2 consecutive days. The test was performed between days 7-18. For cliff aversion, pups were placed on the edge of a small box (approx. 4 cm in height) with both paws protruding over the edge of the box. Pups were allowed 30 sec to avoid the cliff and move themselves backwards. […]

male Tyr mice = assay: Visual evoked potentials (VEP); assay type: in vivo, mouse; parameters: key to NAP efficacy: visual evoked potential: corrections by NAP treatment (+)
Protocol: VEP—5.72±0.52-week-old male mice were used for VEP measurements. Animals were treated for 3 days with 0.1 ml S.C saline, recorded, and then followed by 4 daily S.C doses of either 1 μg NAP (in 0.1 ml saline) or 0.1 ml saline followed by another VEP recording.

[1] = system: SHANK3 mouse model (InsG3680 mutation); assay: Open field behavior; assay type: in vivo; conditions: intranasal, once daily, five days a week for a month
Protocol: To this end, mice with the ASD-linked InsG3680 mutation were used. Two behavioral assessments were performed on make mice: • 1) Open field behavior attesting to anxiety and depression (Open field behavioral assessment technology was previously described, e.g.); and • 2) Social recognition behavior, related to autistic traits (the social recognition test was previously described, e.g..
This surprising finding is of importance as there is a psychiatric illness and regression in individuals with Phelan-McDermid syndrome.

SHANK3 mice = assay: Eubacteriaceae (EubV3) microbiota; assay type: in vivo, mouse; conditions: data not shown
[2] = Tyr mouse, first symbol of cell

## CC[C@H](C)[C@H](NC(=O)[C@H](CO)NC(=O)[C@@H](NC(=O)[C@@H]1CCCN1C(=O)[C@H](C)NC(=O)[C@@H](N)CC(N)=O)C(C)C)C(=O)N1CCC[C@H]1C(=O)N[C@@H](CCC(N)=O)C(=O)O [NAP, NAPVSIPQ]
Tyr mice; Tyr mice, data not shown
  Rooting reflex: induced rooting
Tyr mice; [2]
  NAP efficacy: global developmental delays: +/+
Tyr mice; Tyr pups, daily s.c. NAP, WT 8.69±0.42, Tyr 10.14±0.36, mean±SEM
  Surface-righting, first day of acquisition: 8.81±0.33
Tyr mice; Tyr pups, daily s.c. NAP, WT 12.96±0.28, Tyr 15.29±0.15, mean±SEM
  Air-righting, first day of acquisition: 14.63±0.38
Tyr mice; WT female mice, data not shown
  Body weight: no effect
Tyr mice; WT females, data not shown
  Eye opening: no NAP effect
Tyr mice; WT littermates, data not shown
  Developmental milestones in WT littermates: no effect on WT littermates except for the cliff aversion response
Tyr mice; female Tyr pups, P1-P21
  Body weight: beneficial effect was visible from P10 and reached significance at P20-21
Tyr mice; female Tyr pups, Tyr 16±0.37, WT 14.93±0.43
  Eye opening (day): 14.78±0.46
Tyr mice; males, data not shown
  Eye opening: No genotype/NAP effect
Male Tyr mice; [2]
  NAP efficacy: visual evoked potential: +/+
Male Tyr mice; male Tyr mice, 4 consecutive daily doses
  VEP traces: normalizing these effects
Male Tyr mice; male Tyr mice, 4 daily s.c. doses of 1 μg NAP, 100, 300 and 3000 mcd
  Decrease of VEP P2 AUC: 1.6-2.3 fold
Male Tyr mice; male Tyr mice, 100, 300 and 3000 mcd
  VEP N2 AUC: same significant change
Male Tyr mice; male Tyr mice, 300 and 3000 mcd
  VEP P3 AUC: significant NAP effect
[1]
  Cumulative duration in the center (open field): significantly increased
SHANK3 mice
  EubV3 trend to change as a consequence of the SHANK3 mutation: this trend was not observed in the treated mice
